How the values were obtained:
[1] = molecular target: Carbonic anhydrase 9 (Homo sapiens, UniProt Q16790); test: Inhibition of human carbonic anhydrase 9 assessed as inhibitory constant incubated for 6 hrs by stopped-flow CO2 hydration assay
[2] = molecular target: Carbonic anhydrase 1 (Homo sapiens, UniProt P00915); test: Inhibition of human carbonic anhydrase 1 assessed as inhibitory constant incubated for 6 hrs by stopped-flow CO2 hydration assay
[3] = molecular target: Carbonic anhydrase 2 (Homo sapiens, UniProt P00918); test: Inhibition of human carbonic anhydrase 2 assessed as inhibitory constant incubated for 6 hrs by stopped-flow CO2 hydration assay

Carbonic anhydrase 1, sequence (P00915 whole entry): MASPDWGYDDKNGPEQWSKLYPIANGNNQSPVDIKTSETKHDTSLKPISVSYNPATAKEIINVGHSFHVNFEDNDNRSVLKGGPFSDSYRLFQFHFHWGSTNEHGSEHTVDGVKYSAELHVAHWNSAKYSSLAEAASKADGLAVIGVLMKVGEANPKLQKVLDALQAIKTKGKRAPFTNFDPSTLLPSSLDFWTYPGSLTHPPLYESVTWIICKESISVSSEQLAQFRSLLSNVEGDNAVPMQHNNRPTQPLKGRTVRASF

Ki [1] [µM]	Ki [2] [µM]	Ki [3] [µM]	SMILES
0.0393	> 100	> 100	COC(=O)C1=Cc2cc(C(=O)OC)ccc2OC(=O)C1
0.0934	> 100	> 100	CCN(CC)c1ccc2c(c1)OC(=O)CC(C(=O)OC)=C2
0.078	> 100	> 100	COC(=O)C1=Cc2ccc(Cl)cc2OC(=O)C1
0.0717	> 100	> 100	COC(=O)C1=Cc2cc(C)ccc2OC(=O)C1
0.254	> 100	> 100	COC(=O)C1=Cc2ccccc2OC(=O)C1
0.171	> 100	> 100	COC(=O)C1=Cc2ccc(C)cc2OC(=O)C1
0.0838	> 100	> 100	COC(=O)C1=Cc2ccc(OC)cc2OC(=O)C1
0.303	> 100	> 100	COC(=O)C1=Cc2ccc3ccccc3c2OC(=O)C1
0.02	> 100	76.2	COC(=O)C1=Cc2cc(Cl)ccc2OC(=O)C1
0.0463	> 100	> 100	COC(=O)C1=Cc2cccc(OC)c2OC(=O)C1
0.0373	> 100	85.7	COC(=O)C1=Cc2cc(C(C)(C)C)ccc2OC(=O)C1
0.0402	> 100	66.8	COC(=O)C1=Cc2cc(OC)ccc2OC(=O)C1

— ChEMBL document CHEMBL4619750, “Benzoxepinones: A new isoform-selective class of tumor associated carbonic anhydrase inhibitors” (Bioorg Med Chem, 2020)
